# From the NIST ThermoML archive (doi:10.1016/j.fluid.2008.01.020)
# Numbers after ± are expanded uncertainties.
# Columns and labels:
# [1] = refractive index (Na D-line) (dimensionless); conditions: 101.33 kPa, Liquid, Standard Abbe refractometry
# [2] = Liquid; for mass density: 293.15 K, 101.33 kPa
SMILES,refractive index ([1]; 293.15 K),mass density [2] [kg/m3],also measured
"Cc1ccccc1C [1,2-dimethylbenzene]",1.5055 ± 0.0007,880.1 ± 1.3,vapor or sublimation pressure ([2]; 415.35 K): 95.1 ± 3 kPa
"Cc1cccc(C)c1 [1,3-dimethylbenzene]",1.4972 ± 0.0007,864.4 ± 1.2,vapor or sublimation pressure ([2]; 410.25 K): 95.1 ± 3 kPa
"Cc1ccc(C)cc1 [1,4-dimethylbenzene]",1.4858 ± 0.0007,861 ± 1.2,vapor or sublimation pressure ([2]; 408.65 K): 95.1 ± 3 kPa
Cc1ccccc1O [2-methylphenol],1.5468 ± 0.0007,1046 ± 1.6,vapor or sublimation pressure ([2]; 463.65 K): 95.1 ± 3 kPa
Cc1cccc(O)c1 [3-methylphenol],1.5414 ± 0.0007,1034 ± 1.5,vapor or sublimation pressure ([2]; 473.35 K): 95.1 ± 3 kPa
Cc1ccc(O)cc1 [4-methylphenol],,,refractive index ([1]; 298.15 K): 1.5391 ± 0.0007; vapor or sublimation pressure ([2]; 475.35 K): 95.1 ± 3 kPa
CN(C)C=O [dimethylformamide],1.4305 ± 0.0007,948.7 ± 1.4,vapor or sublimation pressure ([2]; 420.95 K): 95.1 ± 3 kPa
